Assay results reported in publication PMC8490515, “Neuromedin B receptor stimulation of Cav3.2 T-type Ca^2+ channels in primary sensory neurons mediates peripheral pain hypersensitivity” (Theranostics, 2021).

Experiments:
[1] = test system: Nmb-induced mechanical hypersensitivity in mice; assay: Nmb-induced mechanical hypersensitivity, effect of pretreatment (Figure 7C); type: in vivo, mouse; settings: intra-TG KT-5720 2 nmol prior to 1 nmol Nmb; 1 h; n = 8 - 10
Protocol: (§1) Mice were housed on a 12 h light/dark cycle, maintained in a humidity- and temperature-controlled room with water available ad libitum and were acclimated to the experimenter for 2 d before the first behavioural observations. Experimenters were blinded to the treatment or genotypes of the mice. As described previously, [31], an Orofacial Stimulation Test (Ugo Basile, Italy) was used for the measurement of hypersensitivity to the mechanical stimulation of the trigeminal area. Briefly, the mice initially underwent one week of adaptation trainings after a 12 h fasting food period. Each mouse was then placed in a cage in which there was an Orofacial Stimulation Test system. […] The contact number and total duration of time the mouse spent acquiring the reward were analyzed with the ORO software.
(§2) For experiments that several time points are needed to be checked in 24 h, von Frey test was used, as orofacial stimulation test can be checked only once a day, [32]. […] Mechanical hypersensitivity was assessed as described in previous studies, [33]. In brief, the threshold was assessed with a set of von Frey hairs (0.02-2.56 g, Stoelting) applied to the whisker pad in an ascending series of trials, with three separate von Frey stimulations applied per series. The threshold was determined when mice moved their heads away briskly and strongly from at least one of the three stimuli. […]

[2] = test system: phosphorylated AMPK (p-AMPK); assay: Western blot of phosphorylated AMPK in TG cells; type: cell-based, mouse; settings: Nmb exposure (100 nM) in TG cells
[3] = test system: heat hypersensitivity in mice; assay: Heat test, head withdrawal latency (HWL); type: in vivo, mouse; settings: intra-TG 1 nmol or 5 nmol
Protocol: For experiments that several time points are needed to be checked in 24 h, von Frey test was used, as orofacial stimulation test can be checked only once a day, [32]. For the von Frey test, the mice were placed in metal mesh boxes and allowed 30 min for habituation before examination. Mechanical hypersensitivity was assessed as described in previous studies, [33]. In brief, the threshold was assessed with a set of von Frey hairs (0.02-2.56 g, Stoelting) applied to the whisker pad in an ascending series of trials, with three separate von Frey stimulations applied per series. The threshold was determined when mice moved their heads away briskly and strongly from at least one of the three stimuli. Dixon's up-down method was used to determine the 50% probability of escape threshold. For thermal test, a heat stimulus was applied to the maxillary whisker pad skin by radiant heat (IITC Life Science). Heat sensitivity was expressed as head-withdrawal latency (HWL). The radiant heat intensity was adjusted so that basal HWL is between 10-15 s, with a cut-off of 18 s to prevent tissue damage. Chronic inflammatory pain was induced by subcutaneous injection of 20 μL of complete Freund's adjuvant (CFA) into the left side of the buccal pad. […]

[4] = test system: nociception and neurogenic inflammation; settings: application of Nmb; ref [4], [5]; cited from earlier work
Text: It has been well established that T-type channels promote Ca^2+ entry that disrupts the resting membrane potential and can modulate neuronal activity in the peripheral and central nervous systems, thus improving transmission efficiency. In the peripheral sensory neurons this low activation threshold property of T-type channels typically results in the amplification of sensory signals, increased afferent sensory transmission and, in particular, increased pain perception, [74].

[5] = test system: PKA; assay: PKA activity assay in TG cells (Pep Tag); type: cell-based, mouse; settings: 100 nM Nmb, 30 min; triplicate
Protocol: PKA enzymatic activity in cell lysates was measured using the Pep Tag assay for nonradioactive detection of PKA (Promega, Madison, WI, USA) as described in our previous studies. Briefly, TG cells were cultured in 12-well plates and preincubated with BIM23042 (0.5 μM) or compound C (10 μM) followed by exposure to 100 nM Nmb for 30 min. TG cells were washed with ice-cold phosphate-buffered saline and placed on ice. PKA was extracted from the cell lysates with cold PKA extraction buffer (25 mM Tris-HCl, pH 7.4, 0.5 mM EDTA, 0.5 mM EGTA, 10 mM β-mercaptoethanol, 1 μg/mL leupeptin and 1 μg/mL aprotinin). The assay was conducted according to the manufacturer's instructions.

[6] = test system: p42 MAPK in Rat-1 cells transfected with the Nmb-preferring receptor; settings: PKC-independent and pertussis toxin-insensitive; ref [62]; cited from earlier work
Text: In contrast, stimulation of PKC either by insulin-like growth factor in dorsal root ganglion neurons or by angiote ...

[7] = test system: mechanical hypersensitivity in mice; assay: von Frey test after intra-TG injection of Nmb; type: in vivo, mouse
Protocol: Mice were housed on a 12 h light/dark cycle, maintained in a humidity- and temperature-controlled room with water available ad libitum and were acclimated to the experimenter for 2 d before the first behavioural observations. Experimenters were blinded to the treatment or genotypes of the mice. As described previously, [31], an Orofacial Stimulation Test (Ugo Basile, Italy) was used for the measurement of hypersensitivity to the mechanical stimulation of the trigeminal area. Briefly, the mice initially underwent one week of adaptation trainings after a 12 h fasting food period. Each mouse was then placed in a cage in which there was an Orofacial Stimulation Test system. After the mouse was given 10 min to familiarize itself with its environment, the drinking window was opened and the testing mouse was subsequently timed for 10 min to allow drinking the milk. The contact number and total duration of time the mouse spent acquiring the reward were analyzed with the ORO software.
For experiments that several time points are needed to be checked in 24 h, von Frey test was used, as orofacial stimulation test can be checked only once a day, [32]. For the von Frey test, the mice were placed in metal mesh boxes and allowed 30 min for habituation before examination. Mechanical hypersensitivity was assessed as described in previous studies, [33]. In brief, the threshold was assessed with a set of von Frey hairs (0.02-2.56 g, Stoelting) applied to the whisker pad in an ascending series of trials, with three separate von Frey stimulations applied per series. The threshold was determined when mice moved their heads away briskly and strongly from at least one of the three stimuli. Dixon's up-down method was used to determine the 50% probability of escape threshold. For thermal test, a heat stimulus was applied to the maxillary whisker pad skin by radiant heat (IITC Life Science). Heat sensitivity was expressed as head-withdrawal latency (HWL). The radiant heat intensity was adjusted so that basal HWL is between 10-15 s, with a cut-off of 18 s to prevent tissue damage. Chronic inflammatory pain was induced by subcutaneous injection of 20 μL of complete Freund's adjuvant (CFA) into the left side of the buccal pad. The drugs (Nmb, BIM23042, Z941, or TTA-P2) were applied through a percutaneous approach by injecting the TG with a 30 G needle inserted through the infraorbital foramen, infraorbital canal and foramen rotundum. The tip of the needle terminated at the medial part of the TG, and a volume of 5 μL reagent was slowly delivered, [34]. Mice received intra-TG injection of 5'-cholesteryl-modified and 6-FAM-modified Cav3.2 siRNA (Cav3.2-siRNA, 5 μg) or a scrambled negative control siRNA (NC-siRNA) (RiboBio, Guangzhou) 2 d after the CFA injection. siRNA was mixed with polyethyleneimine (PEI, Fermentas Inc.) for 10 min before being delivered. PEI was used as a delivery vehicle to prevent degradation and enhance cell membrane penetration of siRNAs, [36].

[8] = test system: mechanical hypersensitivity in mice; assay: Orofacial stimulation (operant) test, total contact time; type: in vivo, mouse; settings: 1 h after intra-TG 1 nmol Nmb
Protocol: as §1, §2

Row | Compound | effect on Nmb-induced mechanical hypersensitivity [1] | level of phosphorylated AMPK [2] | head withdrawal latency effect, duration [3] | head withdrawal latency (HWL) ([3]; at 1 h) | pro-nociceptive effects of Nmb [4] | PKA activity [5] | p42 MAPK activation [6] | acute mechanical hypersensitivity ([7]; intra-TG 0.1 nmol) | acute mechanical hypersensitivity ([7]; intra-TG 1 nmol or 5 nmol, n = 6 - 8 mice per group) | mechanical hypersensitivity, 5 nmol vs 1 nmol ([7]; intra-TG 5 nmol) | onset of mechanical hypersensitivity ([7]; intra-TG 5 nmol) [h] | recovery from mechanical hypersensitivity ([7]; intra-TG 5 nmol) [h] | time at which mechanical hypersensitivity was maintained ([7]; intra-TG 5 nmol) [h] | total contact time [8]
1 | CCCCCCOC(=O)[C@]1(O)C[C@@H]2O[C@@]1(C)n1c3ccccc3c3c4c(c5c6ccccc6n2c5c31)C(=O)NC4 [KT-5720] | abolished | – | – | – | – | – | – | – | – | – | – | – | – | –
2 | Neuromedin B [Nmb] | – | markedly increased | maintained at 3 h | significantly decreased the head withdrawal latency | can induce pro-nociceptive effects | increase in PKA activity | activated p42 MAPK | no such effects | significantly induced profound hypersensitivity to acute mechanical pain | stronger effect than that of 1 nmol | 1 | 6 | 3 | significantly reduced
